# Measured values taken from patent publication US12239780B2, “Bi-dose nasal spray” (AKROSWISS AG, priority 2018, dated 2025).
# Experiments:
# claustrophobic patients = conditions: cited from earlier work
# [1] = nasal administration, no first pass effect; cited from earlier work
# [2] = aqueous solution, depending on content of active agent; cited from earlier work
# [3] = Bioavailability and plasma concentration after midazolam from the bi-dose nasal spray
compound,measurement,setting,value
"Cc1ncc2n1-c1ccc(Cl)cc1C(c1ccccc1F)=NC2 [midazolam, 8-chloro-6-(2-fluorophenyl)-1-methyl-4H-imidazole[1,5-a][1,4]-benzodiazepine]",MRI examinations carried out successfully and without relevant side effects,"claustrophobic patients; 72 patients, oral 7.5 mg (TG1) or intranasal 1.0 to 2.0 mg (TG2)",97%
same,"MRI imaging quality, intranasal group TG2 compared to oral group TG1","claustrophobic patients; intranasal 1-2 mg versus oral 7.5 mg, p<0.001",significantly higher
same,anxiolytic effect of nasally administered versus orally administered form,claustrophobic patients; intranasal 1-2 mg versus oral 7.5 mg,significantly superior
same,bioavailability using a nasal spray,[1],about 80%
same,pH below which the solution of the active agent is stable (precipitates at higher pH),[2],< 3.8 pH
same,time after administration at which a significant plasma concentration is achieved,"[3]; bi-dose nasal spray, intranasal",2 min
same,bioavailability,"[3]; human, plasma, inhaled or intranasal",> 83%
